Measurements reported in ChEMBL document CHEMBL1201862, “PubChem BioAssay data set” (2004).
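Five concentrations, 48 hours, 96-well plates. Abbreviation: GI50, concentration required for 50% inhibition of growth.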 Activity calls are given as the source filed them. No stated cut-off is given here; in the data, active = GI50 up to about 1.1 µM and inactive = higher. Where a SMILES comes first, the peptide text is derived from it. The star is where a group is joined. Boc = CC(C)(C)OC(=O)*; OBn = c1ccc(CO*)cc1

Tests used:
Experiment in all cases: NCI-60 cell line screen, 48 h
[1] = test system: SK-MEL-2
[2] = test system: SK-MEL-28
[3] = test system: NCI-H23
[4] = test system: LOX IMVI
[5] = test system: NCI-H460
[6] = test system: HOP-62
[7] = test system: M14
[8] = test system: A498
[9] = test system: OVCAR-3
[10] = test system: HCC 2998
[11] = test system: SN12C
[12] = test system: SK-MEL-5
[13] = test system: HL-60
[14] = test system: CCRF-CEM
[15] = test system: NCI/ADR-RES
[16] = test system: T47D
[17] = test system: SF-268
[18] = test system: HOP-92
[19] = test system: MDA-N
[20] = test system: IGROV-1

| Compound | GI50 [1] | GI50 [2] | GI50 [3] | GI50 [4] | GI50 [5] | GI50 [6] | GI50 [7] | GI50 [8] | GI50 [9] | GI50 [10] | GI50 [11] | GI50 [12] | GI50 [13] | GI50 [14] | GI50 [15] | GI50 [16] | GI50 [17] | GI50 [18] | GI50 [19] | GI50 [20] |
| --- | --- | --- | --- | --- | --- | --- | --- | --- | --- | --- | --- | --- | --- | --- | --- | --- | --- | --- | --- | --- |
| CCCCSc1nsc(N(C(=O)c2ccccc2)C(=O)c2ccccc2)n1 | 26.4 µM (inactive) | 40.2 µM (inactive) | 30.1 µM (inactive) | 26.9 µM (inactive) | 27.5 µM (inactive) | 34 µM (inactive) | 29 µM (inactive) | 31.5 µM (inactive) | 23.7 µM (inactive) | 25.5 µM (inactive) | 29.2 µM (inactive) | 18.8 µM (inactive) | 28.1 µM (inactive) | 35.8 µM (inactive) | 31.6 µM (inactive) | 37.9 µM (inactive) | 35.8 µM (inactive) | 26.2 µM (inactive) | 30.9 µM (inactive) | 41.1 µM (inactive) |
| O=C(O)CC1NC(/C(=C/c2ccccc2O)NC(=O)c2ccccc2)OC1=O (centres undefined) | 47.2 µM (inactive) | > 100 µM (inactive) | 26.1 µM (inactive) | 50.9 µM (inactive) | > 58.7 µM (inactive) | 14 µM (inactive) | > 78 µM (inactive) | > 75 µM (inactive) | > 33.5 µM (inactive) | > 40.4 µM (inactive) | 48.8 µM (inactive) | > 73.5 µM (inactive) | > 43.9 µM (inactive) | > 100 µM (inactive) | 19.5 µM (inactive) | 11.7 µM (inactive) | > 23.3 µM (inactive) | 28.7 µM (inactive) | 29.4 µM (inactive) | 14.3 µM (inactive) |
| C1=N\c2ccc(cc2)/N=C\c2ccccc2OCc2cccc(n2)COc2ccccc2/1 | > 100 µM (inactive) | – | > 100 µM (inactive) | > 100 µM (inactive) | > 100 µM (inactive) | 30.1 µM (inactive) | > 100 µM (inactive) | > 100 µM (inactive) | > 100 µM (inactive) | > 100 µM (inactive) | > 100 µM (inactive) | > 100 µM (inactive) | > 100 µM (inactive) | > 100 µM (inactive) | > 100 µM (inactive) | > 100 µM (inactive) | – | > 100 µM (inactive) | > 100 µM (inactive) | 75.2 µM (inactive) |
| C/C(=N\Nc1nc2ccccc2n1C)c1cc2ccccc2cn1 | 0.805 µM (active) | 0.213 µM (active) | < 0.0172 µM (active) | 0.0305 µM (active) | 0.0653 µM (active) | 0.153 µM (active) | < 0.0335 µM (active) | 0.194 µM (active) | – | 11.6 µM (inactive) | < 0.01 µM (active) | 0.0286 µM (active) | 0.0103 µM (active) | 0.0161 µM (active) | < 0.0182 µM (active) | < 0.0447 µM (active) | < 0.0294 µM (active) | 0.321 µM (active) | 0.176 µM (active) | < 0.0128 µM (active) |
| COc1cc2c(cc1OC)[C@H](C)N1CCc3cc(OC)c(OC)cc3[C@@H]1C2 | > 100 µM (inactive) | > 100 µM (inactive) | > 100 µM (inactive) | > 100 µM (inactive) | > 100 µM (inactive) | – | – | > 100 µM (inactive) | > 100 µM (inactive) | > 100 µM (inactive) | > 100 µM (inactive) | > 100 µM (inactive) | > 100 µM (inactive) | > 100 µM (inactive) | > 100 µM (inactive) | > 100 µM (inactive) | > 100 µM (inactive) | > 100 µM (inactive) | > 100 µM (inactive) | > 100 µM (inactive) |
| CN(C)CCCNc1ccc2c(=O)n(CCN(C)C)c(=O)n3c4ccccc4c(=O)c1c23 | 0.798 µM (active) | 0.628 µM (active) | 0.236 µM (active) | 0.144 µM (active) | 0.0335 µM (active) | 0.351 µM (active) | 0.394 µM (active) | 0.309 µM (active) | 0.34 µM (active) | 0.112 µM (active) | 0.103 µM (active) | 0.35 µM (active) | 0.15 µM (active) | 0.132 µM (active) | 0.396 µM (active) | 1.03 µM (active) | 0.603 µM (active) | 0.664 µM (active) | 0.133 µM (active) | 0.148 µM (active) |
| CC(C)(C)OC(=O)NC(Cc1ccccc1)C(=O)NC(Cc1ccccc1)C(=O)NCC(=O)OCc1ccccc1 (stereo not drawn) (Boc-Phe-Phe-Gly-OBn; configuration not given here) | 33.6 µM (inactive) | 23.3 µM (inactive) | 22.8 µM (inactive) | 7.93 µM (inactive) | 23 µM (inactive) | 31.1 µM (inactive) | 20.8 µM (inactive) | > 100 µM (inactive) | 20 µM (inactive) | 16.3 µM (inactive) | 21.7 µM (inactive) | – | 19.7 µM (inactive) | 16.4 µM (inactive) | > 100 µM (inactive) | 77.6 µM (inactive) | 15.3 µM (inactive) | > 100 µM (inactive) | 19.9 µM (inactive) | 13.2 µM (inactive) |
